For this assay, the system named is bovine liver (simulated tissue). Put plainly: Bolus / chemical ablation test in sample bovine liver tissue. The source says:
For example, a solid active agent (HAuCl4) may be added to water at room temperature, and mixed for approximately ten (10) minutes, then filtered and ready to use. The active agent (HAuCl4) solution may be stored for up to a year without stability issues. The hydrophilic nature of the solution facilitates the delivery and spread of the active agent (HAuCl4) throughout the entire target tissue/cavity, while avoiding formation of lumps in the solution or patches of tissue without the solution when delivered.
FIGS. 2A-C and FIGS. 3-5 illustrate exemplary ablative effects of the active agent (HAuCl4) 300 when applied to a sample tissue. FIG. 2A illustrates a liquid DI water solution of active agent (HAuCl4) 300, a syringe 400 and a sample bovine liver tissue 500. […] FIG. 2C depicts the ablated tissue 500.
Various tests were performed in sample tissue 500. For example, in some tests the active agent (HAuCl4) 300 (1 ml) was delivered into the tissue 500 having a constant time of exposure (e.g., 2 minutes at room temperature) but the bolus size (ablated volume) was measured under different active agent (HAuCl4) concentrations (FIG. 3). Data contained in FIG. 3 was measured three times and obtained the average value for the graph, as shown. As known in the art, bolus tests are common to understand diffusion and effectiveness of ablative technologies.
In another test, the active agent (HAuCl4) concentration was maintained constant at 0.5% in an injected 1 ml into the sample tissue but the bolus size was measured at different times (FIG. 4). Data reference in FIG. 4 was measured five times and obtained the average value for the graph, as shown. […] Additionally, the bolus size is time dependent but after 3 minutes, 1 ml of 0.5% HAuCl4 DI-water solution stopped the reaction because the solution is not strong enough to penetrate the tissue further. Therefore, the active agent (HAuCl4) chemical ablation is quantity and time dependent.
FIG. 5 illustrates sample tissue ablation profiles measured and characterized for a range of active agent (HAuCl4) concentration (0.10%, 0.25% and 1% of HAuCl4 within 2 minutes, and a variety of bolus sizes). Optimization was performed to select 0.5% of HAuCl4 in order to achieve desirable ablation profile (rage of 4-9 mm ablation depth of tissue). Additional optimization could be performed to achieve shallower profiles (if desired).

Structures are written as SMILES.

As to `[Au+3].[Cl-].[Cl-].[Cl-].[Cl-].[H+]` [HAuCl4, chloroauric acid], the “penetration depths in the tissue from the surface of the tissue” value (0.5% HAuCl4 diluted in water, up to three (3) minutes of exposure) was 4-9 mm. Moreover, the “ablation depth of tissue (ablation profile)” value (0.5% of HAuCl4 selected by optimization) is 4-9 mm. Besides, the “bolus size (ablated volume) versus concentration” value (1 ml injected, 2 minutes at room temperature, different concentrations (FIG. 3)) is recorded as “increases with the active agent (HAuCl4) concentration”. For the same compound, where the note is “1 ml of 0.5% HAuCl4 DI-water solution (FIG. 4)”, the “time after which the reaction stopped (bolus size versus time)” value was 3 min.

These data come from patent US11890299B2, “Ablation agent and methods of use” (HOLOGIC, INC., priority 2019, dated 2024).
